Assays:
[1] = system: TNFα production by RAW264.7 macrophages; experiment: LPS-mediated TNF production by macrophages, measured by cell viability assay on actinomycin D-sensitized L929 cells; format: cell-based; settings: RAW264.7 cells treated with 2-MeSATP (0-5µM), LPS and ATP
Protocol: Moreover, 2-MeSATP decreased LPS-mediated TNFα production by RAW264.7 macrophages. Production of TNF by the macrophage cells was measured by a "cell viability" assay. This is a standard assay described in Birkland, et al., Adv. Exp. Med. Biol. 256: 399-402 (1990). In brief, TNF in solution will kill actinomycin D-sensitized L929 cells, which can be measured by a loss of MTT dye reduction. The supernatent was removed from RAW264.7 cells treated with 2-MeSATP, LPS and ATP. The greater the amount of 2-MeSATP added (0-5µM), the less TNF was produced by the macrophage cells.

[2] = system: LPS-induced GTPase activity in membranes isolated from RAW 264.7 cells; experiment: GTPase assay: effect of compounds on LPS-stimulated GTPase activity in macrophage membranes (release of 32Pi from γ-32P-GTP); format: biochemical
From the text: We sought to directly evaluate the influence of LPS on possible G-protein function by examining agonist-enhanced GTPase activity, which is a hallmark of G-protein action. Moreover, because macrophages are one of the key cell types in the release of toxic mediators following an LPS challenge, we first assessed the capacity of LPS to influence GTPase activity in membranes isolated from RAW 264.7 cells, which is a highly LPS-responsive macrophage cell line. In these studies, GTPase activity was measured using a standard assay. The activity was determined using 2 µM γ-^32P-GTP in the presence of 0.1 mM ATP and 0.2 mM of the non-hydrolyzable ATP analog, AMPPNP, in order to minimize nonspecific nucleotidase activity in the membrane preparations.
The reaction is initiated by the addition of the γ-^32P-GTP and the mixture incubated at 30-37°C for 15 to 30 minutes. The reaction is terminated by the addition of 500µl of 5% trichloroacetic acid and 500µl of 0.1gm/ml acid-activated charcoal in 5% trichloroacetic acid. The samples are centrifuged at 14,000xg for 10 minutes, and a 550µl aliquot of the supernatant is removed for scintillation counting. The supernatant will contain the released ^32Pi. The extent of GTPase inhibition is measured by the decrease in the amount of ^32Pi released from γ-^32P-GTP. Appropriate controls include mixtures with one of the following omitted: (i) test compound, (ii) endotoxin, and (iii) ATP, ADP or AMPPNP.
The membranes are resuspended in 20 mM HEPES (pH 7.4), 1 mM dithiothreitol, 1 mM EDTA and 10 µg leupeptin/ml. Aliquots are stored at -70°C until assayed.

With 2-methylthio-ATP [2-MeSATP] the “LPS-mediated TNFα production” value [1] was “decreased”, the “LPS-mediated TNFα production” value ([1]; listed as 2-methylthio-ATP) was “blocks” and the “inhibition of LPS-stimulated GTPase activity” value [2] was “blocks”. The “stimulation (potentiation) of LPS-stimulated GTPase activity” value [2] was “no stimulatory effect”, the “antagonism of the stimulatory effects of ATP on LPS-inducible GTPase activity” value ([2]; 2-MeSATP 0-100µM) was “did antagonize” and the “relative abilities of purines to stimulate LPS-enhanced GTPase” value ([2]; dose-response studies, rank order) was “ATP> ATPγS> ADP> AMPPNP>> β,γ methylene ATP> 2-MeSATP”.

— patent EP0559845B1, “Use of compounds in preventing endotoxin shock” (priority 1991, dated 1992)
